# Measured values reported in ChEMBL document CHEMBL2417483, “Synthesis of thiosemicarbazones derived from N-(4-hippuric acid)thiosemicarbazide and different carbonyl compounds as antimicrobial agents” (2013).
# How the values were obtained:
# [1] = test system: Proteus vulgaris; assay: Antibacterial activity against Proteus vulgaris assessed as growth inhibition at 1 mg/mL after 24 hrs by agar well diffusion assay; assay type: functional; details: read-out: DIZ
# [2] = test system: Escherichia coli; assay: Antibacterial activity against Escherichia coli ATCC 25922 assessed as growth inhibition at 1 mg/mL after 24 hrs by agar well diffusion assay; assay type: functional; details: ATCC 25922, 24 h, read-out: DIZ
# [3] = test system: Bacillus spizizenii; assay: Antibacterial activity against Bacillus subtilis ATCC 6633 assessed as growth inhibition at 1 mg/mL after 24 hrs by agar well diffusion assay; assay type: functional; details: ATCC 6633, 24 h, read-out: DIZ
# [4] = test system: Micrococcus luteus; assay: Antibacterial activity against Sarcina luteus assessed as growth inhibition at 1 mg/mL after 24 hrs by agar well diffusion assay; assay type: functional; details: read-out: DIZ
# [5] = test system: Saccharomyces cerevisiae; assay: Antifungal activity against Saccharomyces cerevisiae assessed as growth inhibition at 1 mg/mL after 24 hrs by agar well diffusion assay; assay type: functional; details: read-out: DIZ
# [6] = test system: Candida albicans; assay: Antifungal activity against Candida albicans NRRLY 477 assessed as growth inhibition at 1 mg/mL after 24 hrs by agar well diffusion assay; assay type: functional; details: NRRLY 477, 24 h, read-out: DIZ
# [7] = test system: Klebsiella pneumoniae; assay: Antibacterial activity against Klebsiella pneumoniae ATCC 13883 assessed as growth inhibition at 1 mg/mL after 24 hrs by agar well diffusion assay; assay type: functional; details: ATCC 13883, 24 h, read-out: DIZ
# [8] = test system: Staphylococcus aureus; assay: Antibacterial activity against Staphylococcus aureus ATCC 29213 assessed as growth inhibition at 1 mg/mL after 24 hrs by agar well diffusion assay; assay type: functional; details: ATCC 29213, 24 h, read-out: DIZ
# [9] = test system: Pseudomonas aeruginosa; assay: Antibacterial activity against Pseudomonas aeruginosa ATCC 27953 assessed as growth inhibition at 1 mg/mL after 24 hrs by agar well diffusion assay; assay type: functional; details: ATCC 27953, 24 h, read-out: DIZ
# [10] = test system: Priestia megaterium; assay: Antibacterial activity against Bacillus megaterium ATCC 9885 assessed as growth inhibition at 1 mg/mL after 24 hrs by agar well diffusion assay; assay type: functional; details: ATCC 9885, 24 h, read-out: DIZ
# [11] = test system: Escherichia coli; assay: Bacteriostatic activity against Escherichia coli ATCC 25922 after 24 hrs by two-fold serial dilution assay; assay type: functional; details: ATCC 25922, 24 h
# [12] = test system: Staphylococcus aureus; assay: Bacteriostatic activity against Staphylococcus aureus ATCC 29213 after 24 hrs by two-fold serial dilution assay; assay type: functional; details: ATCC 29213, 24 h
# [13] = test system: Priestia megaterium; assay: Bacteriostatic activity against Bacillus megaterium ATCC 9885 after 24 hrs by two-fold serial dilution assay; assay type: functional; details: ATCC 9885, 24 h
# [14] = test system: Escherichia coli; assay: Potency index, ratio of ciprofloxacin MIC to compound MIC for Escherichia coli ATCC 25922; assay type: functional
# [15] = test system: Micrococcus luteus; assay: Bacteriostatic activity against Sarcina luteus after 24 hrs by two-fold serial dilution assay; assay type: functional
# [16] = test system: Saccharomyces cerevisiae; assay: Fungistatic activity against Saccharomyces cerevisiae after 24 hrs by two-fold serial dilution assay; assay type: functional
# [17] = test system: Proteus vulgaris; assay: Bacteriostatic activity against Proteus vulgaris after 24 hrs by two-fold serial dilution assay; assay type: functional
# [18] = test system: Klebsiella pneumoniae; assay: Bacteriostatic activity against Klebsiella pneumoniae ATCC 13883 after 24 hrs by two-fold serial dilution assay; assay type: functional; details: ATCC 13883, 24 h
# [19] = test system: Candida albicans; assay: Fungistatic activity against Candida albicans NRRLY 477 after 24 hrs by two-fold serial dilution assay; assay type: functional; details: NRRLY 477, 24 h
# [20] = test system: Pseudomonas aeruginosa; assay: Bacteriostatic activity against Pseudomonas aeruginosa ATCC 27953 after 24 hrs by two-fold serial dilution assay; assay type: functional; details: ATCC 27953, 24 h
# [21] = test system: Bacillus spizizenii; assay: Bacteriostatic activity against Bacillus subtilis ATCC 6633 after 24 hrs by two-fold serial dilution assay; assay type: functional; details: ATCC 6633, 24 h
# [22] = test system: Pseudomonas aeruginosa; assay: Potency index, ratio of ciprofloxacin MIC to compound MIC for Pseudomonas aeruginosa ATCC 27953; assay type: functional
# [23] = test system: Klebsiella pneumoniae; assay: Potency index, ratio of ciprofloxacin MIC to compound MIC for Klebsiella pneumoniae ATCC 13883; assay type: functional
# [24] = test system: Micrococcus luteus; assay: Potency index, ratio of ciprofloxacin MIC to compound MIC for Sarcina luteus; assay type: functional
# [25] = test system: Proteus vulgaris; assay: Potency index, ratio of ciprofloxacin MIC to compound MIC for Proteus vulgaris; assay type: functional
# [26] = test system: Pseudomonas aeruginosa; assay: microbe, parasite or virus in culture; details: ATCC 27953, 24 h, read-out: DIZ
# Description: Antibacterial activity against Pseudomonas aeruginosa ATCC 27953 assessed as growth inhibition at 0.5 mg/mL after 24 hrs by agar well diffusion assay
# [27] = test system: Micrococcus luteus; assay: Antibacterial activity against Sarcina luteus assessed as growth inhibition at 0.5 mg/mL after 24 hrs by agar well diffusion assay; assay type: functional; details: read-out: DIZ
# [28] = test system: Staphylococcus aureus; assay: microbe, parasite or virus in culture; details: ATCC 29213, 24 h, read-out: DIZ
# Description: Antibacterial activity against Staphylococcus aureus ATCC 29213 assessed as growth inhibition at 0.5 mg/mL after 24 hrs by agar well diffusion assay
# [29] = test system: Klebsiella pneumoniae; assay: microbe, parasite or virus in culture; details: ATCC 13883, 24 h, read-out: DIZ
# Description: Antibacterial activity against Klebsiella pneumoniae ATCC 13883 assessed as growth inhibition at 0.5 mg/mL after 24 hrs by agar well diffusion assay
# [30] = test system: Bacillus spizizenii; assay: Antibacterial activity against Bacillus subtilis ATCC 6633 assessed as growth inhibition at 0.5 mg/mL after 24 hrs by agar well diffusion assay; assay type: functional; details: ATCC 6633, 24 h, read-out: DIZ
# [31] = test system: Priestia megaterium; assay: Antibacterial activity against Bacillus megaterium ATCC 9885 assessed as growth inhibition at 0.5 mg/mL after 24 hrs by agar well diffusion assay; assay type: functional; details: ATCC 9885, 24 h, read-out: DIZ
# [32] = test system: Proteus vulgaris; assay: Antibacterial activity against Proteus vulgaris assessed as growth inhibition at 0.5 mg/mL after 24 hrs by agar well diffusion assay; assay type: functional; details: read-out: DIZ
# [33] = test system: Saccharomyces cerevisiae; assay: Antifungal activity against Saccharomyces cerevisiae assessed as growth inhibition at 0.5 mg/mL after 24 hrs by agar well diffusion assay; assay type: functional; details: read-out: DIZ
# [34] = test system: Candida albicans; assay: Antifungal activity against Candida albicans NRRLY 477 assessed as growth inhibition at 0.5 mg/mL after 24 hrs by agar well diffusion assay; assay type: functional; details: NRRLY 477, 24 h, read-out: DIZ
SMILES,zone of inhibition at 1000 µg/mL [1],zone of inhibition at 1000 µg/mL [2],zone of inhibition at 1000 µg/mL [3],zone of inhibition at 1000 µg/mL [4],zone of inhibition at 1000 µg/mL [5],zone of inhibition at 1000 µg/mL [6],zone of inhibition at 1000 µg/mL [7],zone of inhibition at 1000 µg/mL [8],zone of inhibition at 1000 µg/mL [9],zone of inhibition at 1000 µg/mL [10],further results
O=C(O)CNC(=O)c1ccc(NC(=S)N/N=C/c2cccc(Br)c2)cc1,0 mm,20 mm,13 mm,18 mm,11 mm,0 mm,9 mm,18 mm,11 mm,18 mm,–
Cc1ccc(/C=N/NC(=S)Nc2ccc(C(=O)NCC(=O)O)cc2)cc1,20 mm,0 mm,0 mm,24 mm,0 mm,0 mm,0 mm,10 mm,0 mm,9 mm,–
O=C(O)CNC(=O)c1ccc(NC(=S)N/N=C/c2ccc(F)cc2)cc1,26 mm,31 mm,20 mm,28 mm,20 mm,20 mm,30 mm,28 mm,30 mm,19 mm,MIC [11]: 6.25 µg/mL; MIC [12]: 6.25 µg/mL; MIC [13]: 12.5 µg/mL; PI [14]: 2; MIC [15]: 25 µg/mL; MIC [16]: 12.5 µg/mL; MIC [17]: 12.5 µg/mL; MIC [18]: 12.5 µg/mL; MIC [19]: 50 µg/mL; MIC [20]: 25 µg/mL; MIC [21]: 12.5 µg/mL
O=C(O)CNC(=O)c1ccc(NC(=S)N/N=C/c2ccc([N+](=O)[O-])cc2)cc1,0 mm,0 mm,15 mm,0 mm,0 mm,0 mm,0 mm,11 mm,0 mm,14 mm,–
C/C(=N\NC(=S)Nc1ccc(C(=O)NCC(=O)O)cc1)c1ccccc1,19 mm,19 mm,14 mm,25 mm,17 mm,0 mm,18 mm,20 mm,19 mm,18 mm,–
C/C(=N\NC(=S)Nc1ccc(C(=O)NCC(=O)O)cc1)c1ccc(Br)cc1,20 mm,23 mm,15 mm,25 mm,18 mm,0 mm,19 mm,20 mm,19 mm,17 mm,–
C/C(=N\NC(=S)Nc1ccc(C(=O)NCC(=O)O)cc1)c1ccc(C)cc1,21 mm,27 mm,19 mm,25 mm,26 mm,25 mm,22 mm,29 mm,32 mm,25 mm,MIC [11]: 6.25 µg/mL; MIC [12]: 6.25 µg/mL; MIC [13]: 12.5 µg/mL; PI [14]: 2; MIC [15]: 12.5 µg/mL; MIC [16]: 6.25 µg/mL; MIC [17]: 12.5 µg/mL; MIC [18]: 25 µg/mL; MIC [19]: 25 µg/mL; MIC [20]: 3.12 µg/mL; PI [22]: 4; MIC [21]: 12.5 µg/mL
C/C(=N\NC(=S)Nc1ccc(C(=O)NCC(=O)O)cc1)c1ccc(Cl)cc1,0 mm,0 mm,15 mm,0 mm,0 mm,0 mm,0 mm,9 mm,0 mm,14 mm,–
O=C(O)CNC(=O)c1ccc(NC(=S)NN=C(c2ccccc2)c2ccccc2)cc1,0 mm,17 mm,20 mm,0 mm,0 mm,0 mm,0 mm,0 mm,12 mm,15 mm,–
O=C(O)CNC(=O)c1ccc(NC(=S)NN=C2CCCCC2)cc1,20 mm,0 mm,0 mm,24 mm,0 mm,0 mm,0 mm,11 mm,12 mm,9 mm,–
O=C(O)CNC(=O)c1ccc(NC(=S)N/N=C2/CCc3ccccc32)cc1,20 mm,25 mm,18 mm,25 mm,20 mm,20 mm,28 mm,28 mm,28 mm,18 mm,MIC [11]: 12.5 µg/mL; MIC [12]: 6.25 µg/mL; MIC [13]: 50 µg/mL; PI [14]: 2; PI [23]: 2; MIC [15]: 12.5 µg/mL; MIC [16]: 50 µg/mL; PI [24]: 2; MIC [17]: 12.5 µg/mL; MIC [18]: 12.5 µg/mL; MIC [19]: 12.5 µg/mL; PI [25]: 2; MIC [20]: 6.25 µg/mL; PI [22]: 2; MIC [21]: 25 µg/mL
O=C(O)CNC(=O)c1ccc(NC(=S)N/N=C2/CC(=O)c3ccccc32)cc1,20 mm,18 mm,9 mm,24 mm,12 mm,0 mm,0 mm,28 mm,11 mm,0 mm,–
O=C(O)c1cn(C2CC2)c2cc(N3CCNCC3)c(F)cc2c1=O [CIPROFLOXACIN],–,–,–,–,–,–,–,–,–,–,MIC [11]: 12.5 µg/mL; MIC [13]: 6.25 µg/mL; zone of inhibition at 500 µg/mL [26]: 24 mm; zone of inhibition at 500 µg/mL [27]: 20 mm; MIC [15]: 12.5 µg/mL; zone of inhibition at 500 µg/mL [28]: 20 mm; zone of inhibition at 500 µg/mL [29]: 25 mm; zone of inhibition at 500 µg/mL [30]: 22 mm; MIC [17]: 12.5 µg/mL; zone of inhibition at 500 µg/mL [31]: 24 mm; MIC [18]: 12.5 µg/mL; zone of inhibition at 500 µg/mL [32]: 23 mm; MIC [21]: 6.25 µg/mL
CC(=O)N1CCN(c2ccc(OCC3COC(Cn4ccnc4)(c4ccc(Cl)cc4Cl)O3)cc2)CC1 (stereo not given) [KETOCONAZOLE],–,–,–,–,–,–,–,–,–,–,zone of inhibition at 500 µg/mL [33]: 23 mm; MIC [16]: 3.12 µg/mL; MIC [19]: 6.25 µg/mL; zone of inhibition at 500 µg/mL [34]: 22 mm
